Measured values reported in patent US8404643B2, “Metastin derivatives and use thereof” (priority 2005, dated 2013).
Square brackets hold non-standard residues; d marks the D form. Peptide text beside a SMILES is read from it. Phe(4-Cl) = N[C@@H](Cc1ccc(Cl)cc1)C(=O)O; Phe(3-F) = N[C@@H](Cc1cccc(F)c1)C(=O)O; Phe(2-F) = N[C@@H](Cc1ccccc1F)C(=O)O; Arg(Me) = CNC(=N)NCCC[C@H](N)C(=O)O; Hyp = O=C(O)[C@@H]1C[C@@H](O)CN1; Pip(4-aza) = O=C(O)[C@@H]1CNCCN1; azaGly = NNC(=O)O; βAla = NCCC(=O)O

Target: T1, hOT7T175 (Homo sapiens, UniProt Q969F8)
T1 construct: expressed in transfected cells
T1 sequence (Q969F8 whole entry L364H): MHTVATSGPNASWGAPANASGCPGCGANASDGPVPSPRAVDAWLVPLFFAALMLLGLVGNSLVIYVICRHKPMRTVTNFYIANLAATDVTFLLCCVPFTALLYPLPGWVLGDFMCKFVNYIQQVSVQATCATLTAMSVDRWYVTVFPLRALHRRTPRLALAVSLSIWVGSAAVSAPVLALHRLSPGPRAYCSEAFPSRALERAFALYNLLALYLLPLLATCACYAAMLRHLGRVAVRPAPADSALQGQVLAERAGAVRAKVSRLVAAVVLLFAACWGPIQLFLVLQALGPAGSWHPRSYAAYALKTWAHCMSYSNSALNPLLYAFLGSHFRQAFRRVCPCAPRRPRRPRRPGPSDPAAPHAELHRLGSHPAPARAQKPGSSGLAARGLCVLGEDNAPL
Experiment: Assay for intracellular Ca ion level-increasing activity using FLIPR
Format: cell-based
Conditions: hOT7T175/CHO cells, relative to Metastin (1-54)
Outline: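 CHO/dhfr− cells stably transfected with hOT7T175, selected for high metastin response, loaded with Fluo3-AM for 1 h at 37 °C in HANKS/HBSS (pH 7.4) with probenecid. Peptides were diluted from 1×10^−3 M DMSO stock into HANKS/HBSS with 2.5 mM probenecid, 0.2% BSA, 0.1% CHAPS; intracellular Ca rise read by FLIPR.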

| Compound | Specific Activity: intracellular Ca ion level-increasing activity [specific activity to Metastin (1-54)] |
| --- | --- |
| CNC(=N)NCCC[C@H](NC(=O)[C@H](CC(C)C)NC(=O)NNC(=O)[C@H](Cc1ccccc1)NC(=O)[C@@H](NC(=O)[C@H](CC(N)=O)NC(=O)[C@H](CCC(=O)O)NC(=O)[C@@H](Cc1ccc(O)cc1)NC(C)=O)[C@@H](C)O)C(=O)N[C@@H](Cc1c[nH]c2ccccc12)C(N)=O [Compound No. 746, Ac-D-Tyr-Glu-Asn-Thr-Phe-AzaGly-Leu-Arg(Me)-Trp-NH2] (Ac-[dY]ENTF[azaGly]L[Arg(Me)]W-NH2) | 2.2 |
| CNC(=N)NCCC[C@H](NC(=O)[C@H](CC(C)C)NC(=O)NNC(=O)[C@H](Cc1ccccc1)NC(=O)[C@@H](NC(=O)[C@H](CC(N)=O)NC(=O)CCNC(=O)[C@@H](Cc1ccc(O)cc1)NC(C)=O)[C@@H](C)O)C(=O)N[C@@H](Cc1c[nH]c2ccccc12)C(N)=O [Compound No. 747, Ac-D-Tyr-β-Ala-Asn-Thr-Phe-AzaGly-Leu-Arg(Me)-Trp-NH2] (Ac-[dY][βAla]NTF[azaGly]L[Arg(Me)]W-NH2) | 2.6 |
| CNC(=N)NCCC[C@H](NC(=O)[C@H](CC(C)C)NC(=O)NNC(=O)[C@H](Cc1ccc(Cl)cc1)NC(=O)[C@@H](NC(=O)[C@H](CC(N)=O)NC(=O)[C@@H](Cc1c[nH]c2ccccc12)NC(=O)[C@@H](Cc1ccc(O)cc1)NC(C)=O)[C@@H](C)O)C(=O)N[C@@H](Cc1c[nH]c2ccccc12)C(N)=O [Compound No. 748, Ac-D-Tyr-D-Trp-Asn-Thr-Phe(4Cl)-AzaGly-Leu-Arg(Me)-Trp-NH2] (Ac-[dY][dW]NT[Phe(4-Cl)][azaGly]L[Arg(Me)]W-NH2) | 0.4 |
| CNC(=N)NCCC[C@H](NC(=O)[C@H](CC(C)C)NC(=O)NNC(=O)[C@H](Cc1ccccc1F)NC(=O)[C@@H](NC(=O)[C@H](CC(N)=O)NC(=O)[C@@H](Cc1c[nH]c2ccccc12)NC(=O)[C@@H](Cc1ccc(O)cc1)NC(C)=O)[C@@H](C)O)C(=O)N[C@@H](Cc1c[nH]c2ccccc12)C(N)=O [Compound No. 749, Ac-D-Tyr-D-Trp-Asn-Thr-Phe(2F)-AzaGly-Leu-Arg(Me)-Trp-NH2] (Ac-[dY][dW]NT[Phe(2-F)][azaGly]L[Arg(Me)]W-NH2) | 0.5 |
| CNC(=N)NCCC[C@H](NC(=O)[C@H](CC(C)C)NC(=O)NNC(=O)[C@H](Cc1cccc(F)c1)NC(=O)[C@@H](NC(=O)[C@H](CC(N)=O)NC(=O)[C@@H](Cc1c[nH]c2ccccc12)NC(=O)[C@@H](Cc1ccc(O)cc1)NC(C)=O)[C@@H](C)O)C(=O)N[C@@H](Cc1c[nH]c2ccccc12)C(N)=O [Compound No. 750, Ac-D-Tyr-D-Trp-Asn-Thr-Phe(3F)-AzaGly-Leu-Arg(Me)-Trp-NH2] (Ac-[dY][dW]NT[Phe(3-F)][azaGly]L[Arg(Me)]W-NH2) | 1.0 |
| CNC(=N)NCCC[C@H](NC(=O)[C@H](CC(C)C)NC(=O)NNC(=O)[C@H](Cc1ccccc1F)NC(=O)[C@@H](NC(=O)[C@H](CC(N)=O)NC(=O)[C@H](CCCCN)NC(=O)[C@@H](Cc1ccc(O)cc1)NC(C)=O)[C@@H](C)O)C(=O)N[C@@H](Cc1c[nH]c2ccccc12)C(N)=O [Compound No. 754, Ac-D-Tyr-Lys-Asn-Thr-Phe(2F)-AzaGly-Leu-Arg(Me)-Trp-NH2] (Ac-[dY]KNT[Phe(2-F)][azaGly]L[Arg(Me)]W-NH2) | 3.1 |
| CNC(=N)NCCC[C@H](NC(=O)[C@H](CC(C)C)NC(=O)NNC(=O)[C@H](Cc1ccccc1F)NC(=O)[C@@H](NC(=O)[C@H](CC(N)=O)NC(=O)[C@H](CCC(=O)O)NC(=O)[C@@H](Cc1ccc(O)cc1)NC(C)=O)[C@@H](C)O)C(=O)N[C@@H](Cc1c[nH]c2ccccc12)C(N)=O [Compound No. 755, Ac-D-Tyr-Glu-Asn-Thr-Phe(2F)-AzaGly-Leu-Arg(Me)-Trp-NH2] (Ac-[dY]ENT[Phe(2-F)][azaGly]L[Arg(Me)]W-NH2) | 3.5 |
| CNC(=N)NCCC[C@H](NC(=O)[C@H](CC(C)C)NC(=O)NNC(=O)[C@H](Cc1cccc(F)c1)NC(=O)[C@@H](NC(=O)[C@H](CC(N)=O)NC(=O)[C@H](CCCCN)NC(=O)[C@@H](Cc1ccc(O)cc1)NC(C)=O)[C@@H](C)O)C(=O)N[C@@H](Cc1c[nH]c2ccccc12)C(N)=O [Compound No. 756, Ac-D-Tyr-Lys-Asn-Thr-Phe(3F)-AzaGly-Leu-Arg(Me)-Trp-NH2] (Ac-[dY]KNT[Phe(3-F)][azaGly]L[Arg(Me)]W-NH2) | 2.4 |
| CNC(=N)NCCC[C@H](NC(=O)[C@H](CC(C)C)NC(=O)NNC(=O)[C@H](Cc1cccc(F)c1)NC(=O)[C@@H](NC(=O)[C@H](CC(N)=O)NC(=O)[C@H](CCC(=O)O)NC(=O)[C@@H](Cc1ccc(O)cc1)NC(C)=O)[C@@H](C)O)C(=O)N[C@@H](Cc1c[nH]c2ccccc12)C(N)=O [Compound No. 757, Ac-D-Tyr-Glu-Asn-Thr-Phe(3F)-AzaGly-Leu-Arg(Me)-Trp-NH2] (Ac-[dY]ENT[Phe(3-F)][azaGly]L[Arg(Me)]W-NH2) | 2.7 |
| CNC(=N)NCCC[C@H](NC(=O)[C@H](CC(C)C)NC(=O)NNC(=O)[C@H](Cc1ccc(Cl)cc1)NC(=O)[C@@H](NC(=O)[C@H](CC(N)=O)NC(=O)[C@H](CCCCN)NC(=O)[C@@H](Cc1ccc(O)cc1)NC(C)=O)[C@@H](C)O)C(=O)N[C@@H](Cc1c[nH]c2ccccc12)C(N)=O [Compound No. 758, Ac-D-Tyr-Lys-Asn-Thr-Phe(4Cl)-AzaGly-Leu-Arg(Me)-Trp-NH2] (Ac-[dY]KNT[Phe(4-Cl)][azaGly]L[Arg(Me)]W-NH2) | 1.8 |
| CNC(=N)NCCC[C@H](NC(=O)[C@H](CC(C)C)NC(=O)NNC(=O)[C@H](Cc1ccc(Cl)cc1)NC(=O)[C@@H](NC(=O)[C@H](CC(N)=O)NC(=O)[C@H](CCC(=O)O)NC(=O)[C@@H](Cc1ccc(O)cc1)NC(C)=O)[C@@H](C)O)C(=O)N[C@@H](Cc1c[nH]c2ccccc12)C(N)=O [Compound No. 759, Ac-D-Tyr-Glu-Asn-Thr-Phe(4Cl)-AzaGly-Leu-Arg(Me)-Trp-NH2] (Ac-[dY]ENT[Phe(4-Cl)][azaGly]L[Arg(Me)]W-NH2) | 1.9 |
| CNC(=N)NCCC[C@H](NC(=O)[C@H](CC(C)C)NC(=O)NNC(=O)[C@H](Cc1ccccc1)NC(=O)[C@@H](NC(=O)[C@H](CC(N)=O)NC(=O)[C@@H]1CNCCN1C(=O)[C@@H](Cc1ccc(O)cc1)NC(C)=O)[C@@H](C)O)C(=O)N[C@@H](Cc1c[nH]c2ccccc12)C(N)=O [Compound No. 760, Ac-D-Tyr-Pzc(2)-Asn-Thr-Phe-AzaGly-Leu-Arg(Me)-Trp-NH2] (Ac-[dY][Pip(4-aza)]NTF[azaGly]L[Arg(Me)]W-NH2) | 1.7 |
| CNC(=N)NCCC[C@H](NC(=O)[C@H](CC(C)C)NC(=O)NNC(=O)[C@H](Cc1ccccc1F)NC(=O)[C@@H](NC(=O)[C@H](CC(N)=O)NC(=O)[C@@H]1C[C@@H](O)CN1C(=O)[C@@H](Cc1ccc(O)cc1)NC(C)=O)[C@@H](C)O)C(=O)N[C@@H](Cc1c[nH]c2ccccc12)C(N)=O [Compound No. 763, Ac-D-Tyr-Hyp-Asn-Thr-Phe(2F)-AzaGly-Leu-Arg(Me)-Trp-NH2] (Ac-[dY][Hyp]NT[Phe(2-F)][azaGly]L[Arg(Me)]W-NH2) | 6.4 |
| CNC(=N)NCCC[C@H](NC(=O)[C@H](CC(C)C)NC(=O)NNC(=O)[C@H](Cc1ccccc1F)NC(=O)[C@@H](NC(=O)[C@H](CC(N)=O)NC(=O)[C@H](Cc1c[nH]c2ccccc12)NC(=O)[C@@H](Cc1ccc(O)cc1)NC(C)=O)[C@@H](C)O)C(=O)N[C@@H](Cc1c[nH]c2ccccc12)C(N)=O [Compound No. 764, Ac-D-Tyr-Trp-Asn-Thr-Phe(2F)-AzaGly-Leu-Arg(Me)-Trp-NH2] (Ac-[dY]WNT[Phe(2-F)][azaGly]L[Arg(Me)]W-NH2) | 1.5 |
| CNC(=N)NCCC[C@H](NC(=O)[C@H](CC(C)C)NC(=O)NNC(=O)[C@H](Cc1cccc(F)c1)NC(=O)[C@@H](NC(=O)[C@H](CC(N)=O)NC(=O)[C@@H]1C[C@@H](O)CN1C(=O)[C@@H](Cc1ccc(O)cc1)NC(C)=O)[C@@H](C)O)C(=O)N[C@@H](Cc1c[nH]c2ccccc12)C(N)=O [Compound No. 765, Ac-D-Tyr-Hyp-Asn-Thr-Phe(3F)-AzaGly-Leu-Arg(Me)-Trp-NH2] (Ac-[dY][Hyp]NT[Phe(3-F)][azaGly]L[Arg(Me)]W-NH2) | 2.6 |
| CNC(=N)NCCC[C@H](NC(=O)[C@H](CC(C)C)NC(=O)NNC(=O)[C@H](Cc1cccc(F)c1)NC(=O)[C@@H](NC(=O)[C@H](CC(N)=O)NC(=O)[C@H](Cc1c[nH]c2ccccc12)NC(=O)[C@@H](Cc1ccc(O)cc1)NC(C)=O)[C@@H](C)O)C(=O)N[C@@H](Cc1c[nH]c2ccccc12)C(N)=O [Compound No. 766, Ac-D-Tyr-Trp-Asn-Thr-Phe(3F)-AzaGly-Leu-Arg(Me)-Trp-NH2] (Ac-[dY]WNT[Phe(3-F)][azaGly]L[Arg(Me)]W-NH2) | 0.2 |
| CNC(=N)NCCC[C@H](NC(=O)[C@H](CC(C)C)NC(=O)NNC(=O)[C@H](Cc1ccc(Cl)cc1)NC(=O)[C@@H](NC(=O)[C@H](CC(N)=O)NC(=O)[C@@H]1C[C@@H](O)CN1C(=O)[C@@H](Cc1ccc(O)cc1)NC(C)=O)[C@@H](C)O)C(=O)N[C@@H](Cc1c[nH]c2ccccc12)C(N)=O [Compound No. 767, Ac-D-Tyr-Hyp-Asn-Thr-Phe(4Cl)-AzaGly-Leu-Arg(Me)-Trp-NH2] (Ac-[dY][Hyp]NT[Phe(4-Cl)][azaGly]L[Arg(Me)]W-NH2) | 1.5 |
